# Laboratory results from ChEMBL document CHEMBL1201862, “PubChem BioAssay data set” (2004).
# Values joined by “and” are separate entries in the source; they are usually repeats but may differ in a detail not shown here. Equal entries are not always repeated. Active and inactive are the calls of the source.
# Experiments:
# [1] = test system: Vero; experiment: Vero cell cytotoxicity, cytotoxicity control for flavivirus capping enzyme inhibitors (AID 588742); format: functional; details: Chlorocebus sabaeus
# [2] = target: T1, Caspase-6 (Homo sapiens, UniProt P55212); experiment: human caspase-6 inhibitors, dose response, biochemical, VEID-R110 fluorescence, cherry-pick (AID 720632)
# T1 sequence (P55212 whole entry): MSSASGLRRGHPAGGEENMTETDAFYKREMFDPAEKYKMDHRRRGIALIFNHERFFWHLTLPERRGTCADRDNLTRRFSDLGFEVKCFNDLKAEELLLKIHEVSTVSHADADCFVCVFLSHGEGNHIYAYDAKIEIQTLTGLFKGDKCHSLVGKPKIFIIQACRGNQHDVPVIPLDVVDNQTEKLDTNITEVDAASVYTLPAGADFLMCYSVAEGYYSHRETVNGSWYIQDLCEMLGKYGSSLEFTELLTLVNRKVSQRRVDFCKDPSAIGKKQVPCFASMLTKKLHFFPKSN
# [3] = target: T2, Insulin-degrading enzyme (Homo sapiens, UniProt P14735); experiment: activators of recombinant IDE enzyme, dose response, counter-screen for IDE activator project, biochemical, fluorescence polarization (AID 588681)
# T2 sequence (P14735 whole entry): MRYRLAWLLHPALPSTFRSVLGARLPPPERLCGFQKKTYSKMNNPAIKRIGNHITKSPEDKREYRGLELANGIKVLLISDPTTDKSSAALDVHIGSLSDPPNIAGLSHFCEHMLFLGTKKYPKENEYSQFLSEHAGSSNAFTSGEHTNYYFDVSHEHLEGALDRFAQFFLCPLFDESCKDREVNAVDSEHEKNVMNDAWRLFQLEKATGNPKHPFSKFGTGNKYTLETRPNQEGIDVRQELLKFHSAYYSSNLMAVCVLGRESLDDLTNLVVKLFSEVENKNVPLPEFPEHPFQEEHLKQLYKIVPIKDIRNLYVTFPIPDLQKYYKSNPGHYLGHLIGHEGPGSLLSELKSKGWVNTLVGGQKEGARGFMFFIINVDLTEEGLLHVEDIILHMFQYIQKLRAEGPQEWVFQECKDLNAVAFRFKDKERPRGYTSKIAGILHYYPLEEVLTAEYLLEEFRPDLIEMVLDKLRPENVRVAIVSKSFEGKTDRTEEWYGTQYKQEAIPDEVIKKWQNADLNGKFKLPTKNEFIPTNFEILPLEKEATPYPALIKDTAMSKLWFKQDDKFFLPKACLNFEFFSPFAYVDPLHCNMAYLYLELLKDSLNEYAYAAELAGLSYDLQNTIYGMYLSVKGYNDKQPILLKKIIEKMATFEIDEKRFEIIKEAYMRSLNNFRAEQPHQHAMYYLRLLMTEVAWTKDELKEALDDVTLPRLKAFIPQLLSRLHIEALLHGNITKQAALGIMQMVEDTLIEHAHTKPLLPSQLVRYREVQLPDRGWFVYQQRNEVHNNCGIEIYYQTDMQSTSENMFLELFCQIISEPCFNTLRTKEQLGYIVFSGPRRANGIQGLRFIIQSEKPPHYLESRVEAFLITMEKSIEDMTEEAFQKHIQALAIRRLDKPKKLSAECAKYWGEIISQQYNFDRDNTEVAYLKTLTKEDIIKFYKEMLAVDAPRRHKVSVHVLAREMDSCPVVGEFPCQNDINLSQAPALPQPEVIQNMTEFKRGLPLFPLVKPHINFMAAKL
# [4] = test system: HEK293; experiment: HEK cell cytotoxicity by LDH release, dose response, cytotoxicity control for IDE activator project, fluorescence, HEK cells (AID 588440); format: functional, cell-based; details: Homo sapiens;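 note: cytotoxicity by LDH release measuring loss of membrane integrity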
# [5] = test system: HEK293; experiment: optical interference in Abeta FP readout, dose response, artefact control for IDE activator project, biochemical, fluorescence polarization (AID 588442); format: functional, cell-based; details: Homo sapiens
# [6] = target: T2, Insulin-degrading enzyme; experiment: activators of endogenous IDE in HEK cells, dose response, cell-based, fluorescence polarization (AID 588439); format: functional
# [7] = target: Melanin-concentrating hormone receptor 1 (Homo sapiens, UniProt Q99705); experiment: Late-stage fluorescence-based counterscreen for antagonists of the G-protein coupled receptor 7 (GPR7): cell-based dose response assay to identify antagonists of the melanin-concentrating hormone receptor 1 (MCHR1) Set 5.; format: functional
# Sequence of Melanin-concentrating hormone receptor 1 (Q99705 whole entry): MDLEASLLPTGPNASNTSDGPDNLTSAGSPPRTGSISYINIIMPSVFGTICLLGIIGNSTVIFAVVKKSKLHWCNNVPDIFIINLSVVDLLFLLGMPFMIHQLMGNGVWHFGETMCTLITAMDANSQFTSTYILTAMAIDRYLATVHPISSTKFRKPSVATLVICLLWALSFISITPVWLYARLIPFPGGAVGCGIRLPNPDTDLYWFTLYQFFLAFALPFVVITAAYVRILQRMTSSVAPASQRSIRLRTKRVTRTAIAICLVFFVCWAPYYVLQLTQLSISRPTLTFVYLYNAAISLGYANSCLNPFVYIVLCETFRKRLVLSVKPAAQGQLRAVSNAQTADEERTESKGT
# [8] = inhibitors of intracellular T. cruzi replication, confirmation, NIH3T3 host cells, beta-gal luminescence (AID 2044); format: functional, cell-based;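 note: intracellular parasites grown in NIH/3T3 mouse fibroblasts as host cells; luminescent beta-galactosidase reporter signal from transgenic T. cruzi replicating inside host cells; inhibitors lower the luminescence signal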
# [9] = cytotoxicity toward NIH3T3 fibroblasts, dose response, counter-screen, cell-based, ATP luminescence, mouse fibroblasts (AID 2010); format: functional;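 note: cells exposed to compound for about 90 hours before reading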
# [10] = target: Beta-2 adrenergic receptor (Homo sapiens, UniProt P07550); experiment: beta2AR agonists driving receptor internalization, dose response, cell-based, FAP fluorogen, flow cytometry, cherry pick 1 (AID 588763); format: functional
# Sequence of Beta-2 adrenergic receptor (P07550 whole entry): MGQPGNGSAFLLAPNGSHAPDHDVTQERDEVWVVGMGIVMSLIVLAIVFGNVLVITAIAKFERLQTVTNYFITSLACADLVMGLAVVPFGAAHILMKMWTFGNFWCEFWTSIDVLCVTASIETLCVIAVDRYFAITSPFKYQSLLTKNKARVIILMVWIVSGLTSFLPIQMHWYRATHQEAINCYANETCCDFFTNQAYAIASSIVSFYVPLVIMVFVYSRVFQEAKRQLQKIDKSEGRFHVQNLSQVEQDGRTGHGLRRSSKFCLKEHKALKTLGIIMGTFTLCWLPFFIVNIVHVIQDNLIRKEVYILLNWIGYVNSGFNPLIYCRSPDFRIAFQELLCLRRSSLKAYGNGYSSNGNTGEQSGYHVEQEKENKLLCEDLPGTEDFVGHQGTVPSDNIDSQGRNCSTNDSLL
# [11] = test system: H4; experiment: Luminescence Cell-Based Dose Response HTS to Identify Activators of 5'UTR Stem-Loop Driven Prion Protein mRNA Translation in H4 Neuroglioblastoma Cells. [Related pubchem assays: 1829 (Project Summary), 1814 (Primary HTS)]; format: functional; details: Homo sapiens
# [12] = target: T3, CAAX prenyl protease 2 (Homo sapiens, UniProt Q9Y256); experiment: human Rce1 protease inhibitors, dose response, biochemical, yeast membranes, quenched-peptide fluorescence, cherry-pick (AID 588849)
# T3 sequence (Q9Y256 whole entry): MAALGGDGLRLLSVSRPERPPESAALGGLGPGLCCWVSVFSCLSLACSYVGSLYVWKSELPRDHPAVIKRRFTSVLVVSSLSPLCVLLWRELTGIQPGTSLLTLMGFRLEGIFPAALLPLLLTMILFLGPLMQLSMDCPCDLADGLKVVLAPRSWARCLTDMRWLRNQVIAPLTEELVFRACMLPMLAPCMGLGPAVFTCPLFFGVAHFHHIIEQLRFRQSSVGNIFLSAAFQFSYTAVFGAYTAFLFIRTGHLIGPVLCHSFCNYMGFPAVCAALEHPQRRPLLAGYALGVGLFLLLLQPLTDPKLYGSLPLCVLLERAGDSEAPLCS
# [13] = target: T4, CAAX prenyl protease 2 (Saccharomyces cerevisiae S288c, UniProt Q03530); format: biochemical
# T4 sequence (Q03530 whole entry): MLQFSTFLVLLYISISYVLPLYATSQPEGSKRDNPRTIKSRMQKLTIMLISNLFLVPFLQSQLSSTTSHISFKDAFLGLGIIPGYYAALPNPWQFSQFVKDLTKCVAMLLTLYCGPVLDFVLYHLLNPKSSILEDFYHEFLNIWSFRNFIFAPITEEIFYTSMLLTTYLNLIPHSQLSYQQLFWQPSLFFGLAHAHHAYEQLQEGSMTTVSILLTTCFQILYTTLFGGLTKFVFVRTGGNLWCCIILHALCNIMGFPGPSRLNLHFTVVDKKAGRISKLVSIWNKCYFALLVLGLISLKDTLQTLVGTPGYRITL
# [14] = target: T5, Protein RecA (Mycobacterium tuberculosis, UniProt P9WHJ3); experiment: Fluorescence Cell-Free Homogeneous Dose Retest to Identify Inhibitors of RecA-Intein Splicing Activity. [Related pubchem assays (depositor defined):AID2097, AID2223, AID489010, AID492950]; format: functional
# T5 sequence (P9WHJ3 whole entry): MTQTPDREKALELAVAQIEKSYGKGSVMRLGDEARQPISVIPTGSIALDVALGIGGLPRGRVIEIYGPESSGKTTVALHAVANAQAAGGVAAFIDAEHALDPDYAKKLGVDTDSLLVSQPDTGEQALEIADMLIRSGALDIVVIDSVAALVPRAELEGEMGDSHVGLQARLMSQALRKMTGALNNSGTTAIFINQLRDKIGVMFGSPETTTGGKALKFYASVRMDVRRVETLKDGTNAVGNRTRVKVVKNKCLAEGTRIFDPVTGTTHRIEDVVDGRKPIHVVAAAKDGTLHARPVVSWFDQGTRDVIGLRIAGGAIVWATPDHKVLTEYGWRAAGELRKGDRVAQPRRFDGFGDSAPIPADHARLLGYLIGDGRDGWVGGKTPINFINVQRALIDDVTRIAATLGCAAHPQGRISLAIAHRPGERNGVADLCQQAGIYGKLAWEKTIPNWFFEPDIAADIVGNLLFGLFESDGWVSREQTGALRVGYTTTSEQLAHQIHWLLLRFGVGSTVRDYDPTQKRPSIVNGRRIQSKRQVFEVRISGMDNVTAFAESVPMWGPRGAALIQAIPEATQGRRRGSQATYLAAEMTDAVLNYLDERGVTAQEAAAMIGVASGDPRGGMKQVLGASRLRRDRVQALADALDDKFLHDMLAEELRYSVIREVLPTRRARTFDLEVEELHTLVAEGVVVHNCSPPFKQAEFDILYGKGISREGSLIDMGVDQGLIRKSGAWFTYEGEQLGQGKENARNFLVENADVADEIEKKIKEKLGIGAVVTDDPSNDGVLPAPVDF
# [15] = Luminescence Cell-Based Dose Response HTS to Identify Activators of Luciferase Translation or Activity in H4 […] Cells. [Related pubchem assays: 1829 (Project Summary), 1814 (Primary HTS)]; format: functional
# [16] = Luminescence Cell-Based Dose Confirmation HTS to Identify Activators of 5'UTR Stem-Loop Driven Alpha-Synuclein mRNA Translation in H4 Neuroglioblastoma Cells. [Related pubchem assays: 1829 (Project Summary), 1814 (Primary HTS)]; format: functional
# [17] = target: Genome polyprotein (dengue virus type 2, UniProt P29990); experiment: Dengue-2 NS5 methyltransferase inhibitors, primary screen, biochemical, confirmation dose response (AID 588689); format: functional
# Sequence of Genome polyprotein (P29990 2492-3391 limits assumed): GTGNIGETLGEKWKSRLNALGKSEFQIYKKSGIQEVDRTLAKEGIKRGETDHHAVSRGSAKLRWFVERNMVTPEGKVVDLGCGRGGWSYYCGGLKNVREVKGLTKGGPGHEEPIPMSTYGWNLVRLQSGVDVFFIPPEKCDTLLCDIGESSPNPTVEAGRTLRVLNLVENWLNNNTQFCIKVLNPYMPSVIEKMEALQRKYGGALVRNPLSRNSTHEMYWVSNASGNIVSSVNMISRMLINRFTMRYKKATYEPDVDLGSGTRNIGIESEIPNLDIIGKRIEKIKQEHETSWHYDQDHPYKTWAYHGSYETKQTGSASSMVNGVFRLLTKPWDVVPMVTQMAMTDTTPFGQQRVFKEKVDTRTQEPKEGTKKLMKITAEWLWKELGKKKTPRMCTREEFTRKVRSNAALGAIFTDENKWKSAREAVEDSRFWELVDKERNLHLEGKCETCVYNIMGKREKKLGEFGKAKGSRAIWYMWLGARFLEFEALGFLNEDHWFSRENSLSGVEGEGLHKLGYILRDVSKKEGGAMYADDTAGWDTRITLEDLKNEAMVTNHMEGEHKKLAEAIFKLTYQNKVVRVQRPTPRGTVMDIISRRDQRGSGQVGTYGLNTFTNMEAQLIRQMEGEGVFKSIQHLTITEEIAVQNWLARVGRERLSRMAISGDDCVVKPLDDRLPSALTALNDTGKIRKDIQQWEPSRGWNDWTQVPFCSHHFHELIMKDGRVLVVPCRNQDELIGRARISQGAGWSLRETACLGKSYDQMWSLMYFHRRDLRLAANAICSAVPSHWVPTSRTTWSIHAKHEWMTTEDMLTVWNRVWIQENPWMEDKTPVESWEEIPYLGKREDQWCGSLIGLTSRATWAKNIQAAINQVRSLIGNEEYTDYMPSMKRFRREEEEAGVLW
# [18] = target: Protein disulfide-isomerase (Homo sapiens, UniProt P07237); experiment: PDI inhibitors, insulin aggregation turbidity, dose response, biochemical, absorbance, cherry-picked samples (AID 602350); format: functional
# Sequence of Protein disulfide-isomerase (P07237 whole entry): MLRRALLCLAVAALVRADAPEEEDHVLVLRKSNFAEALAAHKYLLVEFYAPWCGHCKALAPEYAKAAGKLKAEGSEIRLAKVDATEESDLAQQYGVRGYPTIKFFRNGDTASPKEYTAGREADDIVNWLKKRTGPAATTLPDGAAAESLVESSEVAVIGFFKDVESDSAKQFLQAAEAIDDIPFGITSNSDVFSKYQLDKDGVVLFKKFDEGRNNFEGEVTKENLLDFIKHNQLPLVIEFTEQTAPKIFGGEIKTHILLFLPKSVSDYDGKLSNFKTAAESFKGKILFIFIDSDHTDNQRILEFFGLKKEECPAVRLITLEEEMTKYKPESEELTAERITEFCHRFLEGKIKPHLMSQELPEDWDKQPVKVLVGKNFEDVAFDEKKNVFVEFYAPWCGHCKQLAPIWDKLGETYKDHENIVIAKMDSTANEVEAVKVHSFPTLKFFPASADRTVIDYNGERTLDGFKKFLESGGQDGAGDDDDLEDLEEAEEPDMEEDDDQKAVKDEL
# [19] = target: T6, Aurora kinase A (Homo sapiens, UniProt O14965); format: functional;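 note: value from the Navigating the Kinome kinase panel profiling, panel entry STK6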
# T6 sequence (O14965 whole entry): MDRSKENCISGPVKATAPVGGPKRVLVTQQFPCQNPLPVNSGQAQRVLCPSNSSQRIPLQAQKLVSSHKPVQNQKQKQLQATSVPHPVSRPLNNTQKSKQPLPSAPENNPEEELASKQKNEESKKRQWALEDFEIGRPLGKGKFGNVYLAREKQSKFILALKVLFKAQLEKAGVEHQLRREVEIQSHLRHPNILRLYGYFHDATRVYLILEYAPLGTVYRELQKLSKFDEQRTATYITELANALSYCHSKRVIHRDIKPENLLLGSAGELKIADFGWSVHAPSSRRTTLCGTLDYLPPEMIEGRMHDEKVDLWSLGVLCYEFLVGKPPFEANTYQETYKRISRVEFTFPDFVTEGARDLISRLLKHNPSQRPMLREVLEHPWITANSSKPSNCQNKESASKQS
# [20] = target: Cyclin-dependent kinase 19 (Homo sapiens, UniProt Q9BWU1); experiment: Navigating the Kinome. Panel member name: CDC2L6; format: functional
# Sequence of Cyclin-dependent kinase 19 (Q9BWU1 whole entry): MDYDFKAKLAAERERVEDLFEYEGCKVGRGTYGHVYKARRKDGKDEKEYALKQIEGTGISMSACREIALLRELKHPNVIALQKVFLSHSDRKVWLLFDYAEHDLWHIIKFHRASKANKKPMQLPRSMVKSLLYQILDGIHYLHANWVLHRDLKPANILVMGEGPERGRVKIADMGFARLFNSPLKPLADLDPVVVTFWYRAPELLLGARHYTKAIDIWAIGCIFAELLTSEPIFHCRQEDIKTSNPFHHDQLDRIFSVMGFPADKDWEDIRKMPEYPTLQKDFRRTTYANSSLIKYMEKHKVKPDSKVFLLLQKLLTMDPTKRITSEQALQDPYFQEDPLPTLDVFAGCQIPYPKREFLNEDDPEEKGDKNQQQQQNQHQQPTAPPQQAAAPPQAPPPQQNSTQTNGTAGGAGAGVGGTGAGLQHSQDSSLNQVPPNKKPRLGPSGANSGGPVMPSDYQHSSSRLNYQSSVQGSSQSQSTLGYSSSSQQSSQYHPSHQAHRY
structure (smiles),measurement,setting,value
C/C(CC(=O)N1CCCC1)=N\NC(=O)c1cc2ccccc2cc1O,CC50,[1],17.5 µM (active)
same,AC50,[2],1.88 µM (active)
O=C1C=C(c2ccc(-c3ccccc3)cc2)C[C@@H](c2ccc3c(c2)OCO3)C1,EC50,[3],> 54.7 µM (inactive)
same,IC50,[4],> 89.2 µM (inactive)
same,EC50,[5],> 54.7 µM (inactive)
same,EC50,[6],> 54.7 µM (inactive)
COc1ccc(Oc2c(Cl)cnn(CC(=O)N(c3ccccc3)c3ccccc3)c2=O)cc1,IC50,[7],10.7 µM (inactive)
C=CCn1c(SCc2ccc(F)cc2)nnc1-c1sc2nc(C)cc(C)c2c1N,EC50,[8],0.423 µM (active)
same,EC50,[9],> 60 µM (not active)
same,EC50,[10],0.029 µM (active)
CNC(=S)N(Cc1cccs1)Cc1cc2cc(OC)ccc2nc1O,EC50,[3],> 54.7 µM (inactive)
same,IC50,[4],> 89.3 µM (inactive)
same,EC50,[5],> 54.7 µM (inactive)
same,EC50,[6],> 54.7 µM (inactive)
O=C(c1ccc2c(c1)OCO2)N(Cc1cccs1)C1(C(=O)NC2CCCCC2)CCCCC1,CC50,[1],> 40 µM (active)
Oc1nc(Nc2ccccn2)cc2ccccc12,EC50,[11],36.8 µM (active)
same,AC50,[12],14 µM (active)
same,AC50,[13],> 100 µM (inactive)
same,EC50,[14],> 380 µM (inactive)
same,EC50,[15],6.15 µM (active)
same,AC50,[2],5.89 µM (active)
same,EC50,[16],4 µM (active)
COc1cc2c(cc1Cl)C(=O)C(F)(c1ccccc1)C(=O)N2 (centres undefined),EC50,[10],7.03 µM (inactive)
CC(=O)C1=C(O)C(=O)N(c2cc(C(C)(C)C)on2)C1c1ccc(C(C)C)cc1 (centres undefined),CC50,[1],> 40 µM (active)
same,IC50,[17],95.3 µM (active)
Cc1noc(C)c1S(=O)(=O)Nc1ccc2c(c1)CC(=O)N([C@H](C)CO)C[C@H](C)[C@H](CN(C)S(=O)(=O)c1ccc(F)cc1)O2,AC50,[18],16.9 µM (active) and 19.5 µM (active)
Cc1ccc(NC(=O)Nc2ccc(-c3c(Cc4cccnc4)sc4ncnc(N)c34)cc2)cc1,Ki,[19],0.0631 µM (active)
same,Ki,[20],> 100 µM (inactive)
Cc1nnc(O)c2c(NC(=O)CSc3nnnn3-c3ccc(O)cc3)oc(C)c12,AC50,[18],19.5 µM (active)
